Experimental findings from ChEMBL document CHEMBL1134992, “Six-membered cyclic ureas as HIV-1 protease inhibitors: a QSAR study based on CODESSA PRO approach. Quantitative structure-activity relationships” (Bioorg Med Chem Lett, 2002) are described below.

The structures appear in SMILES notation.

This assay concerns the target Human immunodeficiency virus type 1 protease (Human immunodeficiency virus 1, UniProt Q72874). Kind of assay: Inhibitory activity of compound against HIV-1 aspartyl protease. The following applies: read-out: Log 1/Ki (converted).

On to `CNc1cc(CN2C(=O)N(Cc3ccc(F)c(NC)c3)[C@H](Cc3ccccc3)[C@H](O)[C@H]2CCc2ccccc2)ccc1F`, for which the Ki is 4.91 nM.
